Experimental data: patent US6878690B2, “Compounds and methods” (PharmAxis Pty Ltd., priority 2000, dated 2005)

Columns and labels:
[1] = test system: lymphocyte migration into the spleen; assay: Inhibition of lymphocyte migration into lymphoid tissue (spleen); format: in vivo, Balb/C mice; conditions: intravenous dose of 5 mg of test compound together with labelled lymphocytes; spleens removed 1.5 hours after injection
Source text: In the present example, spleens from specific pathogen free 6-8 week old female Balb/C mice [19-21 g] were used to prepare a single cell suspension in the usual manner in mixed lymphocyte culture medium (DMEM plus glucose, folic acid, L-asparagine, sodium bicarbonate, L-glutamine, sodium pyruvate, HEPES, 2-mercaptoethanol, penicillin, streptomycin, neomycin, and 2% fetal calf serum) by pushing through a stainless steel screen. Following cell collection the red blood cells were lysed in the usual manner by treating with a solution of ammonium chloride, EDTA and sodium hydrogen carbonate (pH 7.3) and the preparation strained (Falcon 2350 cell strainer). All cell preparative steps were performed on ice.
In order to deplete the preparation of B lymphocytes, the cells were suspended in purified rat anti-mouse CD45/B220 antibody (RA3-6B2 clone; PharMingen, USA) at a concentration of 4×10^7 cells per ml and incubated on ice for 20 minutes. An equal volume of mixed lymphocyte culture medium (as above) was then added and the cells centrifuged (200× g) and resuspended at a concentration of 1×10^7 cells per ml in BioMag goat ant-rat IgG (H&L) linked to magnetic beads (Bio Mag; Perseptive Diagnostics, Polysciences Inc, USA). Following a 20 minute incubation on ice, with agitation every 5 minutes, the goat anti-rat IgG/antibody complex was removed using magnetic separation (Dynal MPC-6, Dynal, USA). The magnetic separation procedure was repeated 4 times giving a cell population containing approximately 80-90% T lymphocytes (determined by FACS analysis).
The cells were then washed in Hanks media, resuspended in 5 ml of Hanks, and radio-labelled for 30 minutes at 37° C. with sodium chromate solution (^51Cr, 34 MBq/ml, Amersham, UK). The labelled cells were washed in PBS centrifuged (200×g) and a portion were resuspended at a concentration of 3×10^7 cells/ml in either PBS (negative control), or PBS containing the test compound (25 mg/ml), and stored on ice. Balb/C mice in the negative control and treatment groups received a volume of 0.2 ml of the labelled cell preparation by a lateral tail vein injection. Negative control mice received 0.2 ml of PBS together with 6×10^6 51chromium-labelled lymphocytes, and mice from the treated groups received an intravenous dose of 5 mg of the test compound together with 6 million ^51chromium-labelled lymphocytes. […]
Spleens from the recipient mice were removed 1.5 hours after injection and the cell-associated radioactivity (CPM) determined using a gamma counter (Packard Auto-Gamma 5650. IL, USA). Results (inhibition of lymphocyte migration into the spleen) were expressed as a percentage reduction in the CPM of the spleens from treated animals compared with negative controls.

[2] = test system: myelin basic protein (MBP)-specific T lymphocyte cell lines; assay: Inhibition of T-lymphocyte migration across rat brain endothelial cell layer (Transwell, 51Cr-labelled cells); format: cell-based, Lewis rats; conditions: test substance 10 mmolar in upper well; 6 hours; in comparison with the negative control (glucose 6-phosphate); triplicate
Source text: Vascular endothelial cells were isolated from rat brain capillaries taken from 6 to 8 week old Lewis rats according to the method of Risau et al. (Risau, W., Engelhardt, B., and Wekerle, H., (1990). Journal of Cell Biology, vol 110, p 1757-1766, which is incorporated herein by reference). Colonies of endothelial cells were purified from astroglial cells and pericytes by a Thy1.1-mediated complement lysis also after the method of Risau et al. (vide supra). The endothelial colonies, according to methods known in the art, were grown in Dulbecco's minimum essential medium (DMEM) high glucose supplemented, with 20% fetal calf serum (FCS), glutamine, pyruvate, nonessential amino acids, 4-(2-hydroxyethyl)-1-piperazine ethane sulfonic acid buffer (HEPES), kanamycin, amphotericin, heparin (all from Gibco) and 150 micrograms/ml endothelial growth supplement (Collaborative Biomedical Products). Upon reaching confluence, the endothelial cultures were washed with 0.2% EDTA in phosphate buffered saline (PBS), trypsinized (Trypsin-EDTA, 0.1% final concentration, Gibco), washed and again incubated with anti-Thy1.1 antibody for 40 minutes, washed and incubated with complement sufficient to lyse all Thy1.1+ cells (Behringwerke, AG, Marburg, Germany) at room temperature, washed and plated on matrigel-coated 6.5 mm Transwells, […] (Corning Costar Corporation, Cambridge, Mass.). The endothelial cell characteristics and confluence of the monolayer were checked by measuring the electrical resistance (World Precision Instruments, New Haven, U.S.A., model EVOM-G) and by staining with FITC-labeled phalloidin (Sigma). In order to study the effect of the agents of the present invention on T lymphocyte migration, myelin basic protein (MBP)-specific T lymphocyte cell lines were generated according to the method of Ben-Nun et al. (Ben-Nun, A., Wekerle, H. and Cohen, I. R., 1981). The rapid isolation of clonable antigen-specific T lymphocyte lines capable of mediating autoimmune encephalomyelitis. European Journal of Immunology. 1981, 11(3), 195-199; incorporated herein by reference) from the lymph nodes of Lewis rats that had been immunised with MBP in Freund's complete adjuvant. These cells were used for migration studies during the first 4 days of their propagation in IL-2 containing medium, following antigen (MBP) restimulation in the presence of antigen-presenting cells from irradiated spleen cells or thymocytes taken from normal Lewis rats. The antigen-activated T lymphocytes were radio-labelled with sodium chromate (^51Cr, 37 MBq/ml, Amersham, UK) for 30 minutes at 37° C. with occasional agitation, they were then washed three times with the DMEM culture medium and placed into the upper chamber of the Transwells at 5×10^5 cells in 100 microliters of migration medium. Test and control substance were included in the upper wells at final concentrations of 0.1, 1 and 10 mM. Cell migration was monitored by light microscopy in order to gauge progress of the experiment. […] The combined material was transferred into scintillation vials and the radioactivity of each tube determined by counting for 1 minute in a Packard Auto-Gamma 5650 (IL, USA) gamma counter. Each test and the control substance (glucose 6-phosphate) and no treatment were assessed in triplicate. […]

[3] = test system: passively transferred adjuvant arthritis; assay: Passively transferred adjuvant induced arthritis; format: in vivo, DA rats; conditions: 37 mg/kg/day, end of the two week treatment period, FIG. 2
Procedure: Male DA rats 8 to 10 week old were immunised with three 100 microliter injections of Complete Freund's Adjuvant (CFA) intradermally at the base of the tail. The CFA was prepared by mixing 8 mg/ml of Mycobacterium butyricum (Difco Laboratories, USA) that had been ground to a fine powder using a mortar and pestle, in 85% light mineral oil (Sigma, USA) and 15% mannide monooleate (Sigma) and emulsifying this suspension, one part in one part saline. Thus, the final emulsion contained 4 mg/ml of M. butyricum.
Ten days after immunisation the rats were euthanased and the spleens removed aseptically. A single cell suspension was prepared in the usual manner in mixed lymphocyte culture medium (MLC) (Dulbecco's Modified Eagle's Medium (DMEM) plus glucose, folic acid, L-asparagine, sodium pyruvate, HEPES, 2-mercapto ethanol, penicillin, streptomycin, neomycin and 10% fetal calf serum) by pushing the spleens through a stainless steel sieve. The cells were placed in culture in MLC medium with 2 micrograms/ml concanavalin A added such that the lymphocyte concentration was 2 million cells per milliliter. These cells were cultured aseptically at 37° C. in an atmosphere containing 5% carbon dioxide for 72 hours.
Groups of 4 or 5 DA rats, 6 to 8 weeks of age were anesthetised with diethyl ether and implanted subcutaneously on the flank with Alzet 2002 (2 week delivery) or 2001 (1 week delivery) mini-osmotic pumps (Alza Corp., Palo Alto Calif., USA). One treatment group received phosphoric acid mono-(6-propyl-3,4,5-trihydroxy-tetrahydro-pyran-2-ylmethyl) ester in the one week delivery Alzet 2001 mini-osmotic pumps. The drug was delivered at a dose of 25 mg/kg/day. The control group for this experiment received identical mini-osmotic pumps containing normal saline. In a second experiment another group of DA rats received ethyl (3,4,5-trihydroxy-6-phosphonooxymethyl-tetrahydro-pyran-2-yl)-acetic acid ester in the two week delivery Alzet 2002 mini-osmotic pumps. This drug was delivered at a dose of 37 mg/kg/day. Control animals for this group received saline delivered in identical mini-osmotic pumps. The pumps in each case were implanted subcutaneously on the flank of each animal. […]
After 5 to 8 days, a characteristic thickening and cutaneous hyperemia of the distal joints of the hind legs became clinically apparent in the saline control animals. Disease severity was evaluated and graded in each group by taking daily measurements of the mediolateral widths of both ankle joints. The data were expressed as the mean of the change (compared with width prior to cell injection) in mediolateral ankle width expressed in millimeters (±standard error of the mean).

| SMILES | Percent Inhibition (relative to negative controls) of lymphocyte migration into spleens [1] | % inhibition ± SEM [2] | further results |
| --- | --- | --- | --- |
| N#CC1OC(COP(=O)([O-])[O-])C(O)C(O)C1O.[Na+].[Na+] (stereo not drawn) [6-cyano-3,4,5-trihydroxy-tetrahydro-pyran-2-ylmethyl phosphoric acid ester disodium salt] | 45.0% | – | – |
| O=C(O)CC1OC(COP(=O)(O)O)C(O)C(O)C1O (stereo not drawn) [(3,4,5-trihydroxy-6-phosphonooxymethyl-tetrahydro-pyran-2-yl)-acetic acid] | – | 32 ± 2% | – |
| CCOC(=O)CC1OC(COP(=O)([O-])O)C(O)C(O)C1O.[Na+] (stereo not drawn) [Ethyl (3,4,5-trihydroxy-6-phosphonooxymethyl-tetrahydro-pyran-2-yl)-acetic acid ester sodium salt] | 32.4% | – | – |
| CCOC(=O)CC1OC(COP(=O)(O)O)C(O)C(O)C1O (stereo not drawn) [Ethyl (3,4,5-trihydroxy-6-phosphonooxymethyl-tetrahydro-pyran-2-yl)-acetic acid ester] | – | 70 ± 4% | swelling in the affected joints of treated animals ([3]; two week Alzet 2002 pump subcutaneously, controls severe swelling): little swelling; disease status of the treated versus the control animals ([3]; two week Alzet 2002 pump): highly statistically significant difference |
| CCCCCOC(=O)CC1OC(COP(=O)(O)O)C(O)C(O)C1O (stereo not drawn) [Pentyl (3,4,5-trihydroxy-6-phosphonooxymethyl-tetrahydro-pyran-2-yl)-acetic acid ester] | – | 80 ± 4% | – |
| O=C[C@H](O)[C@@H](O)[C@H](O)[C@H](O)COP(=O)(O)O [glucose 6-phosphate, reference compound] | – | 0 ± 5% | – |
| O=P([O-])(O)OCC1OCC(O)C(O)C1O.[Na+] (stereo not drawn) [mono-(3,4,5-trihydroxy-tetrahydro-pyran-2-ylmethyl)phosphoric acid ester mono sodium salt] | 68.0% | – | – |
